# Literature values as cited in patent US11980625B2, “Ganaxolone for use in treating tuberous sclerosis complex” (Marinus Pharmaceuticals, Inc., priority 2019, dated 2024).
# Read-outs that look alike come from different tables or passages of the source.
# Key:
# [1] = human plasma; cited from earlier work
# [2] = tested on: patients with TSC-related epilepsy; conditions: 18 weeks, cited from earlier work
# [3] = tested on: patients with TSC-related epilepsy; conditions: Phase 2, open-label, 3 months; cited from earlier work
# [4] = tested on: patients with TSC-related epilepsy; conditions: 16 weeks, cited from earlier work
compound,measurement,setting,value
"CC(=O)[C@H]1CC[C@H]2[C@@H]3CC[C@H]4C[C@H](O)CC[C@]4(C)[C@H]3CC[C@]12C [Allopregnanolone, 3α,5α-tetrahydroprogesterone, reference compound]",half-life,[1],about 45 minutes
CO[C@H]1C[C@@H]2CC[C@@H](C)[C@@](O)(O2)C(=O)C(=O)N2CCCC[C@H]2C(=O)O[C@H]([C@H](C)C[C@@H]2CC[C@@H](OCCO)[C@H](OC)C2)CC(=O)[C@H](C)/C=C(\C)[C@@H](O)[C@@H](OC)C(=O)[C@H](C)C[C@H](C)/C=C/C=C/C=C/1C [AFINITOR ®],Median % change in seizure freq (Drug Response),"[2]; Phase 3, High-exposure",High-exposure: −39.6%
same,Median % change in seizure freq (Drug Response),"[2]; Phase 3, Low-exposure",Low-exposure: −29.3%
C=C(C)[C@@H]1CCC(C)=C[C@H]1c1c(O)cc(CCCCC)cc1O [EPIDIOLEX ®],Median % change in seizure freq (Drug Response),[3],−48.8%
same,Median % change in seizure freq (Drug Response),"[4]; Phase 3, 25 mg/kg/day",25 mg/kg/day: −48.6%
same,Median % change in seizure freq (Drug Response),"[4]; Phase 3, High-exposure",High-exposure: −47.5%
